Experiment [1] concerns s12_13_82m7 (DNA, aptamer) GCGCGATCAAGGTCGGAGCGTTTTCGCGGAGTCGGCTGGATCGCGC
The experiment in a line: ITC. To be noted: 50 mM Na+, 3 mM Mg2+; BB: 20 mM Tris-acetate, pH 7.4, 25 °C.

Experiment [2] has as its system s12_13_82 (DNA, aptamer) ATACCAGCTTATTCAATTCAGGGCGGTATGAGGCTCGATCAAGGTCGGAGCGAGAATTTTTTCGCGGAGTCGGCTGGATCAGATAGTAAGTGCAATCT
The experiment in a line: ITC. Particulars: 50 mM Na+, 3 mM Mg2+; BB: 20 mM Tris-acetate, pH 7.4, 25 °C.

The subject of experiment [3] is s25_Kana6-1 (DNA, aptamer) GACGACGAGGGCCTGAAACTTGCTGGAACGGTTAAAGTCGTC
The experiment can be described thus: ITC. To be noted: 300 mM Na acetate, 10 mM Mg2+, 5 mM K+; SB3: 50 mM MES-NaOH, pH 7.0, 25 °C.

Experiment [4] has as its system s12_13_82 (DNA, aptamer) ATACCAGCTTATTCAATTCAGGGCGGTATGAGGCTCGATCAAGGTCGGAGCGAGAATTTTTTCGCGGAGTCGGCTGGATCAGATAGTAAGTGCAATCT
The experiment can be described thus: CD spectroscopy. Particulars: 50 mM Na acetate, 3 mM Mg2+; BB: 20 mM Tris-acetate, pH 7.4, 25 °C; 2 μM aptamer, 20 μM KANA.

Experiment [5] relates to s25_Kana6-1 (DNA, aptamer) GACGACGAGGGCCTGAAACTTGCTGGAACGGTTAAAGTCGTC
The experiment can be described thus: CD spectroscopy. Particulars: 300 mM Na acetate, 10 mM Mg2+, 5 mM K+; SB3: 50 mM MES-NaOH, pH 7.0, 25 °C; 2 μM aptamer, 20 μM KANA.

Experiment [6] deals with s12_13_82m1 (DNA, aptamer) GATCAAGGTCGGAGCGAGAATTTTTTCGCGGAGTCGGCTGGATC
The experiment in a line: ITC. To be noted: 50 mM Na+, 3 mM Mg2+; BB: 20 mM Tris-acetate, pH 7.4, 25 °C.

Experiment [7] deals with s11_Kana2 (DNA, aptamer) CACCTAATACGACTCACTATAGCGGATCCGAAGATGGGGGTTGAGGCTAAGCCGACCGTAAGTTGGGCCGTCTGGCTCGAACAAGCTTGC
The experiment can be described thus: ITC. Particulars: 50 mM Na acetate, 5 mM K+, 5 mM Mg2+; SB1: 20 mM Tris-acetate, pH 8.0, 25 °C; 20.8 μM aptamer, 300 μM KANA in syringe; KD above 200 μM undetectable.

Experiment [8] concerns s12_13_82m2 (DNA, aptamer) GCGATCAAGGTCGGAGCGAGAATTTTTTCGCGGAGTCGGCTGGATCGC
The experiment can be described thus: ITC. Particulars: 50 mM Na+, 3 mM Mg2+; BB: 20 mM Tris-acetate, pH 7.4, 25 °C.

In experiment [9] the test system is s25_Kana6-5 (DNA, aptamer) GACGACGCAGTTGGCTTAGCGTAGGTAAAGGTCGATGTCGTC
The experiment can be described thus: ITC. To be noted: 300 mM Na acetate, 10 mM Mg2+, 5 mM K+; SB3: 50 mM MES-NaOH, pH 7.0, 25 °C.

For experiment [10] the test system is unchanged. The experiment in a line: CD spectroscopy. To be noted: 300 mM Na acetate, 10 mM Mg2+, 5 mM K+; SB3: 50 mM MES-NaOH, pH 7.0, 25 °C; 2 μM aptamer, 20 μM KANA.
Experiment [11] concerns s21_K16 (DNA, aptamer) CGCATACCAGCTTAGTTCAGAATTCATTGGAGCGTGGCGTGGATGCCCGATGAACCGCCCCAGGGTGCAGATAGTAAGTGCAATCTCGGC
The experiment can be described thus: ITC. Particulars: 100 mM Na acetate, 2 mM Mg2+, 5 mM K+, 1 mM Ca2+; SB2: 20 mM Tris-acetate, pH 7.6, 25 °C; 30 μM aptamer, 350 μM KANA in syringe; KD above 300 μM undetectable.

Experiment [12] concerns s12_13_82m8 (DNA, aptamer) GCGATCAAGGTCGGAGCGTTTTCGCGAGTCGGCTGGATCGC
The experiment in a line: ITC. To be noted: 50 mM Na+, 3 mM Mg2+; BB: 20 mM Tris-acetate, pH 7.4, 25 °C.

In experiment [13] the test system is s21_K16 (DNA, aptamer) CGCATACCAGCTTAGTTCAGAATTCATTGGAGCGTGGCGTGGATGCCCGATGAACCGCCCCAGGGTGCAGATAGTAAGTGCAATCTCGGC
The experiment can be described thus: CD spectroscopy. Particulars: 100 mM Na acetate, 2 mM Mg2+, 5 mM K+, 1 mM Ca2+; SB2: 20 mM Tris-acetate, pH 7.6, 25 °C; 2 μM aptamer, 20 μM KANA.

Experiment [14] deals with s12_13_82m6 (DNA, aptamer) GCGCGATCAAGGTCGGAGCGCAGTTGCGGAGTCGGCTGGATCGCGC
The experiment can be described thus: ITC. To be noted: 50 mM Na+, 3 mM Mg2+; BB: 20 mM Tris-acetate, pH 7.4, 25 °C.

In experiment [15] the test system is s12_13_82m5 (DNA, aptamer) GCGATCAAGGTCGGAGCGAGTTCGCGGAGTCGGCTGGATCGC
The experiment can be described thus: ITC. Particulars: 50 mM Na+, 3 mM Mg2+; BB: 20 mM Tris-acetate, pH 7.4, 25 °C.

`NC[C@@H]1O[C@H](O[C@H]2[C@@H](O)[C@H](O[C@@H]3[C@@H](O)[C@H](N)C[C@H](N)[C@H]3O[C@H]3O[C@H](CN)[C@@H](O)[C@H](O)[C@H]3N)O[C@@H]2CO)[C@H](N)[C@@H](O)[C@@H]1O`: the binding entry in [1] and in experiment [2] was “no” each time.
As for `CN[C@@H]1[C@H](O[C@H]2[C@H](O[C@H]3[C@H](O)[C@@H](O)[C@H](N=C(N)N)[C@@H](O)[C@@H]3N=C(N)N)O[C@@H](C)[C@]2(O)C=O)O[C@@H](CO)[C@H](O)[C@H]1O`, the binding entry in experiment [1] and in [2] was “no” each time.
In general, KD refers to a measure of binding affinity in units of concentration. On to `NC[C@H]1O[C@H](O[C@H]2[C@H](O)[C@@H](O[C@H]3O[C@H](CO)[C@@H](O)[C@H](N)[C@H]3O)[C@H](N)C[C@@H]2N)[C@H](O)[C@@H](O)[C@@H]1O`, for which the KD was 2230 ± 240 nM in [3]; 96 ± 8.7 nM in [6]; 0.000101 ± 8e-06 mM in experiment [8]; 870 ± 40 nM in experiment [9]; 0.000109 ± 1.49e-05 mM in experiment [1]; 0.00047 ± 4e-05 mM in experiment [2]. The KD in experiment [12] was 0.0022 ± 0.000352 mM; in [14], 0.000519 ± 4.84e-05 mM; in [15], 0.000106 ± 8.7e-06 mM. The binding entry in experiment [4] is on record as “yes”; in [5], “yes”; in experiment [7], “no”; in experiment [10], “yes”; in experiment [11], “no”; in [13] it was “no”.

The record behind these values is article PMC12653048 (2025).
